# Values quoted from earlier work in patent publication US8088918B2, “Noncardiotoxic pharmaceutical compounds” (Williamsburg Holdings LLC, priority 2004, dated 2012).
# How the values were obtained:
# [1] = target: CYP2D6 (Homo sapiens, UniProt P10635); settings: cited from earlier work
# [2] = preclinical and clinical studies; cited from earlier work
# [3] = oral administration; cited from earlier work
# [4] = healthy volunteers, therapeutic plasma concentrations; cited from earlier work
# Sequence of CYP2D6 (P10635 whole entry): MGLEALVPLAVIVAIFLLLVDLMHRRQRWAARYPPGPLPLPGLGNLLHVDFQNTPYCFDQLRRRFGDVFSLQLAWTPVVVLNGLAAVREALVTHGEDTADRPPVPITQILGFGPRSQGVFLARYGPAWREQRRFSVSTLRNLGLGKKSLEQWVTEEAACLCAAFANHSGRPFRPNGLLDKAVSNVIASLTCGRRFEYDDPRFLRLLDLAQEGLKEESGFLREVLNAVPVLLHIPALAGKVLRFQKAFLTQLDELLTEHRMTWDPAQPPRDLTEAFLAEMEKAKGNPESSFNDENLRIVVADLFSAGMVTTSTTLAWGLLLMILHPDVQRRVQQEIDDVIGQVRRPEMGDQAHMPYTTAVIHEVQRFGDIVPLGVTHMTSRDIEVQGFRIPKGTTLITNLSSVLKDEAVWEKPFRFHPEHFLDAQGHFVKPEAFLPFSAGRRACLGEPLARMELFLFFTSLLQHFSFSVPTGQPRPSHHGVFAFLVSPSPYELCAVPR
SMILES,metabolism by CYP2D6 to the hydroxymetabolite [1],cardiotoxicity compared with imipramine [2],systemic availability [3],increase in mean QTc [4] [ms]
"C[N+](C)([O-])CCCN1c2ccccc2CCc2ccccc21 [imipramine-N-oxide, Imipramine-N-oxide]",abolished the metabolism of imipramine by CYP2D6 to the hydroxymetabolite,significantly reduced,about 100%,–
CC(CC(c1ccccc1)c1ccccc1)NC(C)(C)C (stereo not shown) [terodiline],–,–,–,23
